Where “and” joins values, the source holds several entries; their conditions need not be identical. Identical values can stand only once. Entries after “also recorded” stand apart in the source; their conditions may differ. Like-named read-outs stand apart in the source and are kept apart here.
Legend:
Assay type in all cases: cell-based, mouse
[1] = tested on: oligodendrocyte progenitor cells; experiment: Western blot for myelin proteins PLP/DM20 and CNPase in treated oligodendrocyte progenitor cells; conditions: for induction of PLP/DM20 and CNPase expression at low concentrations: 0.01 and 0.1, 48 hrs (FIG. 2); for EC50: Mus musculus, Oligodendrocyte progenitor cell
Protocol: Oligodendrocyte progenitors were generated from embryonic neural progenitors growing in cell aggregates known as neurospheres (Nphs). Nph were prepared from embryos at 14.5 days of gestation obtained from timed pregnant females of either wild type mice or the proteolipid protein-enhanced-green fluorescence protein (Plp-EGFP) transgenic mouse. In brief, after separation of meninges and cerebellum, cerebrum tissue was mechanically triturated with a 1 ml Gilson pipette until total tissue disaggregation was achieved, filtered through a 70 μm cell strainer (Fisher Scientific, Pittsburg, Pa.) and plated in 25 cm^2 plastic culture flasks (2 brains/flask). Nph proliferation media (NPM) was DMEM/F12, B27 neuronal supplement (Gibco, Baltimore, Md.) and 10 ng/ml EGF (Sigma, St. Louis, Mo.). After 48-72 hr, floating Nphs were passaged at a 1:3 ratio in the same medium every 3-4 days. To generate oligodendrocyte progenitors, single cells suspensions were obtained by chemical disgregation with the mouse NeuroCult dissociation kit (StemCell Technologies, Alberta, Canada). The single cell suspension was filtered through a 70 μm cell strainer and plated on 96-well poly-D-Lysine (PDL)-coated plates at a cell density of 1.5×10^4 cells/cm^2. Cells were maintained in NPM supplemented with 10 ng/ml PDGF/bFGF instead of EGF. Bipolar, oligodendrocyte progenitor cells were observed 24 hours after plating. At the Moment of treatment to induce oligodendrocyte progenitor differentiation, the media was changed to OPC differentiation media containing NPM with a 1:10 dilution of PDGF/FGF.
For myelin protein analyses, cells were grown on 100 mm culture plates and after exposure to small molecules or controls were washed twice with ice-cold PBS. RIPA lysis buffer was added to the plates and the cells were scraped, collected and disrupted with a homogenizer on ice. Cell homogenates were then centrifuged at 6,000×g, 10 min, 4° C. and supernatants separated in a fresh tube. After adding Laemli loading buffer, proteins were denaturized at 70° C. for 10 mm and loaded in gradient gels (4-20, Criterion, BioRad, Calif.). Electroforetically separated proteins were electro-transferred to nitrocellulose membranes in a semi-dry apparatus and unspecific bonds were blocked with IRdye blocking solution for at least 1 hr at RT. After washing twice with TBS-T, primary antibodies were added and incubated over night at 4° C. Membranes were incubated with secondary, IRdye-infrared conjugated antibodies for 1 hr at RT and visualized on the Odyssey scanner.
(§1) The primary screening to select positive compounds was performed at a standard concentration of 10 μM with cell morphology analysis 48 hrs after treatment. Dose response curves at 48 hrs treatment time were performed to determine the minimum concentration compounds A, A-7 and B needed to induce cell maturation. We assessed oligodendrocyte differentiation by cell morphology changes, green fluorescence in cells generated from or Plp-EGFP transgenic mouse, immunostaining for myelin proteins and western blot for expression of the oligodendrocyte markers PLP/DM20 and 2′,3′, cyclic nucleotide 3′ phosphohydrolase (CNPase). EC50 values were also calculated based on results of western blot for myelin proteins and subsequent band densitometry analysis. Additionally, we followed cell differentiation induced over long time exposure to compounds A and B (7 days, 0.1-10 μM).

[2] = tested on: oligodendrocyte progenitor cells; experiment: Immunocytochemistry for PLP/DM20 and MBP, count of differentiated cells; conditions: for cell morphology after long-term exposure: compound B at the lowest concentrations (0.1 μM)
Protocol: Immunodetection of oligodendrocyte and myelin markers was performed. In brief, Oligodendrocyte cells plated on PDL-coated dishes were initially fixed in 2% paraformaldehyde (PFA) for 10 min at room temperature (RT) and then 4% PFA for 15 min, washed three times with PBS and permeabilized with 0.1% Triton X100 for 10 min at RT. After blocking with 3% BSA in PBS for 60 min a RT, the cells were incubated with primary antibodies at the indicated concentrations overnight (ON) at 4° C. The cells were washed three times with cold PBS incubated with secondary antibodies for 45 min at RT, and washed again before mounting. Immunostaining of tissue sections prepared with a sliding microtome (30 μm) was performed. In brief, tris buffered saline (TBS) containing 100 nM Sodium fluoride (TBSS) was used the all dilutions and washes. For antigen retrieval, sections were washed 3 times in TBSS, incubated in 5% methanol and 3% H2O2 for 10 min, washed 2 times, and then incubated in 10% Triton X-100 for 20 min. Blocking of unspecific bonds was performed by incubating the tissue sections with 10% NGS for 1 hr. Primary antibodies were diluted in 3% BSA containing 0.02% Triton X-100 and sections were incubated overnight in this solution. The next day the sections were washed 3 times in TBSS, followed by 1 hr incubation in secondary antibodies (1:1000) at 4° C. After several washes, the sections were mounted using Vectashield (Vector Laboratories, Burlingame, Calif.). Visualization of immunostained cells and tissue was performed on a Leica DMR (Wetzlar, Germany) or a Leica SP5 confocal microscope.
as §1
Compound A-7-induced oligodendrocyte progenitor maturation was also analyzed in comparison to control cells in immunostaining experiments to detect the myelin proteins MBP and PLP. Positive cells for these markers showing processes formation and membranous structures were counted versus total cells and counterstained with the nuclear dye Dapi after 48 hrs (Tables 3 and 4) and 7 days treatment with 0.1, 1 or 10 μM compound A-7 (FIG. 2, B).

[3] = tested on: oligodendrocyte progenitor cells; experiment: Cell toxicity and viability (MTT, cell death); conditions: for cell toxicity and viability: concentrations below 50 μM
Protocol: Differentiation induced by selected compounds was further validated by fluorescence microscopy in cells generated from our Plp-EGFP transgenic mouse. Increased fluorescence in treated oligodendrocyte progenitor was indicative of cell maturation and was again scored following the same scale. 13 positive compounds were identified after secondary screening (FIG. 1). These were analyzed for cell toxicity assays by MTT were yellow 3-(4,5-Dimethylthiazol-2-yl)-2,5-diphenyltetrazolium bromide, a tetrazole (MTT) is reduced to purple formazan in the mitochondria of living cells, showing a solution color change measurable by OD620-590 (Data not shown). Further oligodendrocyte progenitor maturation in response to selected compounds was assessed by induction of myelin protein expression as determined by immunocytochemistry and western blot.

[4] = 48 hrs, read-out: EC50 for CNPase expression (western blot)
[5] = 48 hrs, read-out: EC50 for PLP/DM20 expression (western blot)

| SMILES | induction of PLP/DM20 and CNPase expression at low concentrations [1] | EC50 [1, 4] | EC50 [1, 5] | PLP/DM20 Expression (WB, % of Control) ([1]; Table 3, 10 μM, 48 hrs) | PLP/DM20 Expression (WB, % of Control) ([1]; Table 4, 1 μM) | PLP/DM20 Expression (WB, % of Control) ([1]; Table 4, 10 μM) | cell morphology after long-term exposure ([2]; 7 days after treatment) | Differentiated Cells (IC, % of Control) ([2]; Table 4, 10 μM) | cell toxicity and viability [3] | further results |
| --- | --- | --- | --- | --- | --- | --- | --- | --- | --- | --- |
| CCS(=O)(=O)N1CCN(C(=O)COc2ccc(-c3ccccc3)cc2)CC1 [Compound A, 1-[(4-biphenylyloxy)acetyl]-4-(ethylsulfonyl)piperazine] | observed | 10 nM | 23 nM | 195 ± 25.8 n = 6; p <0.01 % of Control | 201.2 ± 49.4 % of Control | 195.1 % of Control and 195.1 ± 25.8 % of Control | clear morphology changes; also recorded: formation of long-thick processes and major membranous structures | 289.3 ± 66.6 % of Control | did not show significant detrimental effects | low concentration at which increased expression of the major myelin proteins is already detectable ([1]; 48 hrs): 0.1 µM; immunostaining for PLP and MBP: expression of myelin proteins ([2]; 10 μM, 48 hr (FIG. 1)): increased expression; differentiated cells, percentage of total cells ([2]; 7 days after treatment, 0.1-10 μM, control 9.5%): about 25%; Differentiated Cells (IC, % of Control) ([2]; Table 3, 10 μM, 48 hrs): 186.1 ± 44.8 n = 4; p <0.05 % of Control; Differentiated Cells (IC, % of Control) ([2]; Table 4, 1 μM): 248.9 ± 47.5 % of Control |
| CC(C)N1CCN(C(=O)COc2ccc(-c3ccccc3)cc2)CC1 [Compound A-7, 1-(Biphenyl-4-yloxy)acetyl-4-isopropylpiperazine] | observed | 70 nM | 30 nM | 286.8 % of Control | 263.3 % of Control and 263.3 ± 25.2 % of Control | 286.8 ± 16.5 % of Control | formation of long-thick processes and major membranous structures | 296 ± 38.06 % of Control | did not show significant detrimental effects | myelin protein PLP/DM20 expression compared to other compounds and controls [1]: dramatic up-regulation; reduction of the amount necessary to induce the same effect as 10 μM compound A [1]: 1-2 orders of magnitude; induction of PLP/DM20 expression relative to levels of the A treated cells ([1]; 10 μM): 147%; effect at 50 μM ([1]; 50 μM): slightly decreases; PLP/DM20 Expression (WB, % of Control) ([1]; Table 3, 10 μM, 48 hrs, listed as drawing 48): 286.8 ± 16.5 n = 6; p <0.01 % of Control; percentage of differentiated cells compared to A treated cells ([2]; 10 μM): 159.1%; concentration at which induction of oligodendrocyte differentiation reached maximum levels ([2]; 48 hrs and 7 days treatment): 0.1 µM; Differentiated Cells (IC, % of Control) ([2]; Table 3, 10 μM, 48 hrs, 10 µM): 296.1 % of Control; Differentiated Cells (IC, % of Control) ([2]; Table 3, 10 μM, 48 hrs, listed as drawing 48, 10 µM): 296.1 ± 19 n = 4; p <0.05 % of Control; Differentiated Cells (IC, % of Control) ([2]; Table 4, 1 μM, 1 µM): 343 % of Control and 343.2 ± 52.3 % of Control |
| O=[N+]([O-])c1ccc(F)c(NS(=O)(=O)c2ccc(F)cc2)c1 [Compound B, 4-fluoro-N-(2-fluoro-5-nitrophenyl)benzenesulfonamide] | observed | 5 nM | 7 nM | – | – | – | clear morphology changes; also recorded: formation of long-thick processes and major membranous structures | – | – | oligodendrocyte cell differentiation at high doses compared with control cells ([1]; 10-50 μM): did not induce higher oligodendrocyte cell differentiation; concentrations with significant/effective induction of myelin protein expression (western blot densitometry) ([1]; 48 hrs): 0.01 to 1 µM; percentage of mature cells ([2]; 7 days, 10 μM): dropped to control levels; concentrations with toxic effect (induction of cell death) [3]: > 10 µM; concentrations with toxic effect (MTT cell viability) ([3]; MTT): higher than 1 μM |
